For test [1], the system named is THP-1 macrophages. As to the kind of experiment: hoxLDL efflux from macrophage cells. The class given is cell-based, human. To be noted: GW3965 10^-8 M, NAPs 10^-6 M. The procedure:
THP-1, human monocytes, are grown in suspension, with RPMI medium containing 0.4 mM Ca^2+ and Mg^2+, (ATCC) and supplemented with 10% FBS, in an incubator with 5% CO2 at 37 C and split every four days through centrifugation. The cells are seeded at a concentration of 100,000 cells/cm^2 to continue monocyte cultures and to differentiate the cells into macrophage cells. Once the monocytes have been differentiated into macrophage cells they will become adherent and can be tested. The macrophage cells can not be propagated and will be used within a week of differentiation.
Highly oxidized LDL will be oxidized within five days of each experiment. BODIPY-labeled and unlabeled human plasma derived LDL (Molecular Probes, OR) is oxidized by 18 hours of incubation with 10 uM CuSO4 (Sigma) at 37 C with 5% CO2. (Oorni 1997; Chang 2001) The oxidation will be stopped with 0.01% w/v EDTA after the 18 hours.
The efflux of hoxLDL by macrophage cells was assayed by incubating fluorescently labeled hoxLDL (10 ug/mL) with cells for 2 hours at 37 C and 5% CO2. […] The images were analyzed with Image Pro Plus 5.1 software (Media Cybernetics, San Diego, Calif.) and normalized with cell number and compared to the control sample wherein no NAPs or ligand was administered.

In test [2] the test system is THP-1 macrophages. As to the kind of experiment: GW internalization study (multiphoton imaging). In kind it is cell-based, human. To be noted: 5 hr, polymer 10^-6 M. On the procedure: In brief, differentiated THP-1 macrophages were incubated with NAPs at 10^−6 M and/or 10^−7M GW3965 for 5 hr in serum-free RPMI at 37° C. Cells were washed and fixed and multiphoton imaging to detect internalized GW3965 was performed on a Leica TCS SP2 system (Leica Microsystems, Inc., Exton, Pa.). The cells were illuminated using a titanium: sapphire femtosecond laser with a tunable wavelength from 780 nm to 920 nm (Mai Tai, repetition rate 80 Mhz, 100 fs pulse duration, 800 mW) and 470-500 nm emission.

Another test has as its system ABCA1. To be noted: GW3965 at concentrations as high as 1*10^-6 M; cited from earlier work.
The test system of test [3] is THP-1 macrophages. As to the kind of experiment: Efflux of high density lipoproteins (HDL secretion). To be noted: macrophages pre-loaded with hoxLDL 30 μg/ml, ApoA1 present. In kind it is cell-based, human. The procedure: In brief, differentiated THP-1 macrophages were pre-incubated with 30 μg/ml highly oxidized LDL at 37° C. in serum-free RPMI 1640 for 24 hr. Next, NAPs at 10^−6 M and 10 ug/mL ApoA1 with or without 10^−7 M GW3965 were added to each well and incubated for a further 24 hours. The cell medium was then removed for analysis using the Biovision HDL and LDL/VLDL Cholesterol Quantification kit (BioVision, CA). The remaining macrophages were lysed using 0.03 g sodium dodecyl sulfate (SDS) in 30 ml sodium hydroxide (NaOH, 0.1N). The protein content was measured with the Modified Lowry protein assay (Pierce, Ill.) and the HDL secretion results were normalized per mg cell protein.

In the next test the test system is LXRalpha. To be noted: GW3965 at concentrations as high as 1*10^-6 M; cited from earlier work.

Data on 1 compound can be found in patent US20110008396A1, “COMPOSITIONS AND METHODS FOR TREATING CARDIOVASCULAR CONDITIONS” (Rutgers, the Sate University of New Jersey, priority 2007, published 2011).

“Also recorded” adds a separate entry of the source. Where only a bound is given, the exact number is not on record here.

For the compound `O=C(O)Cc1cccc(OCCCN(Cc2cccc(C(F)(F)F)c2Cl)CC(c2ccccc2)c2ccccc2)c1` [GW3965], in the test with THP-1 macrophages [1] (5 hours), the “hoxLDL efflux (in words)” value is reported as “not effective”. Besides, the “less hoxLDL within the cells / cholesterol released (efflux) versus nothing administered” value with THP-1 macrophages [1] (hoxLDL 10 ug/mL 2 h, then test condition 5 h) was found to be 4%. In addition, the “internalization of GW3965 by macrophages (multiphoton images, in words)” value in the test on THP-1 macrophages [2] is listed as “minimal uptake; also recorded: no drug uptake”. Further, the “ABCA1 increase in HepG2 cells” value in the test on ABCA1 was at most 6 fold. The “HDL secreted versus 100 percent baseline (in words)” value in the test on THP-1 macrophages [3] is listed as “not significantly different”. For the same compound, the “LXRalpha increase in HepG2 cells” value in the test with LXRalpha is given as at most 3 fold.
